We go through five molecules from ChEMBL document CHEMBL1150977, “A quantitative analysis of kinase inhibitor selectivity” (Nat Biotechnol, 2008).

Assay [1] has as its target Fibroblast growth factor receptor 2 (Homo sapiens, UniProt P21802).
For a further assay, the target named is T1, Ephrin type-A receptor 6 (Homo sapiens, UniProt Q9UF33).
T1 sequence (Q9UF33 whole entry): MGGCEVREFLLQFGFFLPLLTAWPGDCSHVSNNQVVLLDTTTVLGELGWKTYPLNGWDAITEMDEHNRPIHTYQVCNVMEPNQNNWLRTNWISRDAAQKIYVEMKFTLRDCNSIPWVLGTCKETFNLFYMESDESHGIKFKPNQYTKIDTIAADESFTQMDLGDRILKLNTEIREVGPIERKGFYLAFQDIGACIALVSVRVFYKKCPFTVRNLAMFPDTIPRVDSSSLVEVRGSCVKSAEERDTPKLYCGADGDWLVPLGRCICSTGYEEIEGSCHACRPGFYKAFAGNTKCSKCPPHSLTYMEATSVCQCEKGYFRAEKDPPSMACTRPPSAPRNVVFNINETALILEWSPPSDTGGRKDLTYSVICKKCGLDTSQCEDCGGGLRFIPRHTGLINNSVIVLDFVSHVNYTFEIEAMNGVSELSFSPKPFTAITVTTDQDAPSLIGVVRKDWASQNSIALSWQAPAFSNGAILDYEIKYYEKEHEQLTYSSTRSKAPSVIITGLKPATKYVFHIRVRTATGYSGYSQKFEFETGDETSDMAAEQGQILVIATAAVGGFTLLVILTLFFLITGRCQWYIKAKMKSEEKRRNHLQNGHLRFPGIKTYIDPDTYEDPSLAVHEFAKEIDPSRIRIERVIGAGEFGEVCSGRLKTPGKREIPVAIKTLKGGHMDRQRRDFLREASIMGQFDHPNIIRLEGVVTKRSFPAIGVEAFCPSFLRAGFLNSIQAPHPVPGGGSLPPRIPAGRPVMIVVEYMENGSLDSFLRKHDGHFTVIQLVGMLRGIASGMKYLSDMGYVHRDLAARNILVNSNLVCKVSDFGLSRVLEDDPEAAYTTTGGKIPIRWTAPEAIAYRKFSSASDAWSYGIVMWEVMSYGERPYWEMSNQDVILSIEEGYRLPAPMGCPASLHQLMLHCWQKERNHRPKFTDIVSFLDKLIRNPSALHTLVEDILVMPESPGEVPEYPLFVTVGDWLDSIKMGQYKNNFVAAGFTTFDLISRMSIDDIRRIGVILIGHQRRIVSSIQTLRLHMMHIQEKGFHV

Assay [2] deals with T2, Serine/threonine-protein kinase PLK4 (Homo sapiens, UniProt O00444).
T2 sequence (O00444 whole entry): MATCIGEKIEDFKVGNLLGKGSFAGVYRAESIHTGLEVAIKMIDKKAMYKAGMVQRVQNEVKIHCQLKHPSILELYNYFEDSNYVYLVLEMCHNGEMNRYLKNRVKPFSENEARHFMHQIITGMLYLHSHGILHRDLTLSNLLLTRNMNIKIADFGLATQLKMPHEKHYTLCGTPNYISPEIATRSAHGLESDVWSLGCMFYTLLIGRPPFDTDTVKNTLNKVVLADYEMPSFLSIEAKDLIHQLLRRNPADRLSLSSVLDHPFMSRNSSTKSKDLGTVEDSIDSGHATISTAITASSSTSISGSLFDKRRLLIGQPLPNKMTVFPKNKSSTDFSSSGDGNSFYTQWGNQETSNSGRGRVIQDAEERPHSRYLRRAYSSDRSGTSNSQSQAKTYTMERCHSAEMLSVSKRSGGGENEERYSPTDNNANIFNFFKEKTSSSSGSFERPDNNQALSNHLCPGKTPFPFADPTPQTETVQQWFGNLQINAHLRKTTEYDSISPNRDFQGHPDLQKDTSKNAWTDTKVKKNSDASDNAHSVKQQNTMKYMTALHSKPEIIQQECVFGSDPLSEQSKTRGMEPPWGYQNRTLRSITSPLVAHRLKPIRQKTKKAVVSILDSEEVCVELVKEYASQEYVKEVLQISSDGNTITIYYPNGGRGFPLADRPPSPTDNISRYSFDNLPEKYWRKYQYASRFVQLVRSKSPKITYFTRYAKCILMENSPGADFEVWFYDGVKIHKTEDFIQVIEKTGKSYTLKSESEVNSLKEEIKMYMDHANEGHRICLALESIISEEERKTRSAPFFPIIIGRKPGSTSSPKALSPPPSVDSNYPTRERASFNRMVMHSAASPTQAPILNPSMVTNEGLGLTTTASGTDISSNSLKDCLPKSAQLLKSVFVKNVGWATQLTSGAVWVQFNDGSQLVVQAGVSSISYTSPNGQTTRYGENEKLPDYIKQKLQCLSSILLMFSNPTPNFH

The target of assay [3] is Mitogen-activated protein kinase kinase kinase kinase 1 (Homo sapiens, UniProt Q92918).
Assay [4] concerns the target cAMP-dependent protein kinase catalytic subunit alpha (Homo sapiens, UniProt P17612).

Chain of Fibroblast growth factor receptor 2 (P21802 whole entry): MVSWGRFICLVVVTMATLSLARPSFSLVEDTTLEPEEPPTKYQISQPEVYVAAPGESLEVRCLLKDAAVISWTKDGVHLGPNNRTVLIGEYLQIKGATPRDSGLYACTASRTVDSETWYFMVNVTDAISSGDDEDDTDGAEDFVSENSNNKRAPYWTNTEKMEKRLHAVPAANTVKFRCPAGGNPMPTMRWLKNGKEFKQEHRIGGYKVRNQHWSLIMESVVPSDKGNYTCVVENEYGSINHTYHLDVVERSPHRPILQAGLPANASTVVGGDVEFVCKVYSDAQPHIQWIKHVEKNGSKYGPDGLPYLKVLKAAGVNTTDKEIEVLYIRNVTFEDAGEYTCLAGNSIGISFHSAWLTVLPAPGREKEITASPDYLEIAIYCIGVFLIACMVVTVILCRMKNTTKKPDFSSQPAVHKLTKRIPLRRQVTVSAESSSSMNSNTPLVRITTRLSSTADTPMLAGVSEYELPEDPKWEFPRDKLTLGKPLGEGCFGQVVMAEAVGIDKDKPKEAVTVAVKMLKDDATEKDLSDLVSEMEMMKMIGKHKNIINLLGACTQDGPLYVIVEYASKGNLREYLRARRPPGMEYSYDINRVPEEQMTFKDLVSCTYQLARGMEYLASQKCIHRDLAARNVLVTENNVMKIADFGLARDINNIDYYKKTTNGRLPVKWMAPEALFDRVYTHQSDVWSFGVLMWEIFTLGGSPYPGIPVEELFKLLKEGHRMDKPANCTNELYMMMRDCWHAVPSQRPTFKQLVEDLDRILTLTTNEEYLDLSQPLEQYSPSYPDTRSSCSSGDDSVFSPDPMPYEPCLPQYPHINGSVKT
Chain of Mitogen-activated protein kinase kinase kinase kinase 1 (Q92918 whole entry): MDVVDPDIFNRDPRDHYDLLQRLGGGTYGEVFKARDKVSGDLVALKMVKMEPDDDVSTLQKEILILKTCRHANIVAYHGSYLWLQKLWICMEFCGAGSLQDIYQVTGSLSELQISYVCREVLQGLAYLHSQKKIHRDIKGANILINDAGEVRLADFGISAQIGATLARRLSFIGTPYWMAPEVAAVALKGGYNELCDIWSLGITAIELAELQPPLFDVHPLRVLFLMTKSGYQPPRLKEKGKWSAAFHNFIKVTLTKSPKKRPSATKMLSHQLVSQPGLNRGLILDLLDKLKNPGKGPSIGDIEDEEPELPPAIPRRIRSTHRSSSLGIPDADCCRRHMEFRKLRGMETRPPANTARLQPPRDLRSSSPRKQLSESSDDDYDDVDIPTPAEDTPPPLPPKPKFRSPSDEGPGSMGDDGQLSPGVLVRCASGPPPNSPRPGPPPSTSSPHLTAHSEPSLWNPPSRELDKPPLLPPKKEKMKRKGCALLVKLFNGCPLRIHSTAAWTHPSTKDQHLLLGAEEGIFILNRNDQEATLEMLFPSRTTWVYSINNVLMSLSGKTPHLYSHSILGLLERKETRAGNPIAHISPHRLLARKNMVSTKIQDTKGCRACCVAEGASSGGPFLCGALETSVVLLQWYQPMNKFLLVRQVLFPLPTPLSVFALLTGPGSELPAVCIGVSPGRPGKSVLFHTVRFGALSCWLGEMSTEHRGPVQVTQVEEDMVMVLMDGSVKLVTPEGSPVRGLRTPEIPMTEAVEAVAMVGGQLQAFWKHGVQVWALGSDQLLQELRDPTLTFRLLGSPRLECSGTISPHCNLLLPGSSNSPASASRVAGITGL

As for `Oc1ccc(-c2nc(-c3ccncc3)c(-c3ccc(F)cc3)[nH]2)cc1` [SB-202190], the Kd in assay [1] was greater than 10 µM; on Ephrin type-A receptor 6 it was 2.2 µM; in assay [2] it was greater than 10 µM; in assay [3], greater than 10 µM.
For the molecule `COCC(=O)NC/C=C/c1ccc2ncnc(Nc3ccc(Oc4ccc(C)nc4)c(C)c3)c2c1` [CP-724714], the Kd (in assay [1]; in assay [4]; at Ephrin type-A receptor 6; in assay [2]; in assay [3]) was greater than 10 µM each time.
In the case of `Nc1nc(Nc2ccc(S(N)(=O)=O)cc2)nn1C(=O)c1c(F)cccc1F` [JNJ-7706621], the values for the Kd (on Ephrin type-A receptor 6; in assay [2]; in assay [3]) were greater than 10 µM, 0.12 µM and 0.12 µM, respectively.
`NC(=O)c1ccc(-c2nc(-c3ccc4c(c3)OCO4)c(-c3ccccn3)[nH]2)cc1` [SB-431542]: the Kd (in assay [1]; in assay [4]; at Ephrin type-A receptor 6; in assay [2]; in assay [3]) was greater than 10 µM throughout.
Take `CCOc1cc2ncc(C#N)c(Nc3ccc(F)c(Cl)c3)c2cc1NC(=O)/C=C/CN(C)C` [PELITINIB]: the Kd in assay [1], in assay [4] and in assay [2] was greater than 10 µM in each case.

By Kd is commonly meant the free concentration of one partner at which half of the binding sites on the other are occupied at equilibrium, for simple one-to-one binding. A higher Kd goes with lower affinity.
